Measured values as given in patent US20100311714A1, “1H-IMIDAZO[4,5-c]QUINOLINONE COMPOUNDS” (priority 2009, published 2010).

Molecular target: T1, PI3K gamma (Homo sapiens, UniProt P48736)
T1 construct: His tag (C); made in house; host or cells: construct from Roger Williams lab (pVL1393); baculovirus BV950; Tn5 (Trichoplusia ni) or TiniPro insect cells
Assay: PI3K gamma kinase assay (Kinase-Glo luminescence)
Format: biochemical
Settings: read-out: PI3Kgamma/IC50
Experimental: In a more preferred assay, the kinase reaction is performed in a final volume of 10 μL per well of a low volume non binding CORNING, 384 well black plate (Cat. No. #3676). The final concentrations of ATP and phosphatidyl inositol (PI) in the assay are 1 μM and 10 μg/mL respectively. The reaction is started by the addition of ATP.
The components of the assay are added per well as follows:
50 nL test compounds in 90% DMSO per well, in columns 1-20, 8 concentrations (⅓ and 1/3.33 serial dilution step) in single. • Low control: […] of 90% DMSO in half the wells of columns 23-24 (0.45% in final). • High control: 50 nL of reference compound (e.g. compound of Example 7 in WO 2006/122806) in the other half of columns 23-24 (2.5 μM in final). • Standard: 50 nL of reference compound as just mentioned diluted as the test compounds in columns 21-22 • 20 mL ‘buffer’ are prepared per assay: • 200 μL of 1M TRIS HCl pH7.5 (10 mM in final) • 60 μL of 1M MgCl2 (3 mM in final) • 500 μL of 2M NaCl (50 mM in final) • 100 μL of 10% CHAPS (0.05% in final) • 200 μL of 100 mM DTT (1 mM in final) • 18.94 mL of nanopure water • 10 mL ‘PI’ are prepared per assay: • 200 μL of 1 mg/ml L-alpha-Phosphatidylinositol (Liver Bovine, Avanti Polar Lipids Cat. No. 840042C MW=909.12) prepared in 3% OctylGlucoside (10 μg/ml in final) • 9.8 mL of ‘buffer’ • 10 mL ‘ATP’ are prepared per assay: • 6.7 μL of 3 mM stock of ATP giving a final concentration of 1 μM per well • 10 mL of ‘buffer’ • 2.5 mL of each PI3K construct are prepared per assay in ‘PI’ with the following final concentration: • 10 nM PI3K alfa EMV B1075 • 25 nM beta EMV BV949 • 10 nM delta EMV BV1060 • 150 nM gamma EMV BV950 • 5 μL of ‘PI/PI3K’ are added per well. • 5 μl ‘ATP’ are added per well to start the reaction. • The plates are then incubated at room temperature for 60 minutes (alfa, beta, delta) or 120 minutes (gamma). • The reaction is terminated by the addition of 10 μL Kinase-Glo (Promega Cat. No. #6714). • The assay plates are read after 10 minutes in Synergy 2 reader (BioTek, Vermont USA) with an integration time of 100 milliseconds and sensitivity set to 191. • Output: The High control is around 60′000 counts and the Low control is 30′000 or lower • This luminescence assay gives a useful Z′ ratio between 0.4 and 0.7
PI3K gamma is purified in two chromatographic steps: immobilized metal affinity chromatography (IMAC) on a Ni Sepharose resin (GE Healthcare) and gel filtration (GFC) utilizing a Superdex 200 26/60 column (GE Healthcare). All buffers are chilled to 4° C. and lysis is performed chilled on ice. Column fractionation is performed rapidly at room temperature. Typically frozen insect cells are lysed in a hypertonic lysis buffer and applied to a prepared IMAC column. The resin is washed with 3-5 column volumes of lysis buffer, followed by 3-5 column volumes wash buffer containing 45 mM imidazole, and the target protein is then eluted with a buffer containing 250 mM imidazole. Fractions are analyzed by Coomassie stained SDS-PAGE gels, and fractions containing target protein are pooled and applied to a prepared GFC column. Fractions from the GFC column are analyzed by Coomassie stained SDS-PAGE gels, and fractions containing target protein are pooled. The final pool is dialyzed into a storage buffer containing 50% glycerol and stored at −20° C. The final pool is assayed for activity in the phosphoinostitol kinase assay.
IC50 is determined by a four parameter curve fitting routine that comes along with “excel fit”. A 4 Parameter logistic equation is used to calculate IC50 values (IDBS XLfit) of the percentage inhibition of each compound at 8 concentrations (usually 10, 3.0, 1.0, 0.3, 0.1, 0.030, 0.010 and 0.003 μM). Alternatively, IC50 values are calculated using idbsXLfit model 204, which is a 4 parameter logistic model.

T1 sequence (P48736 144-1102 limits assumed): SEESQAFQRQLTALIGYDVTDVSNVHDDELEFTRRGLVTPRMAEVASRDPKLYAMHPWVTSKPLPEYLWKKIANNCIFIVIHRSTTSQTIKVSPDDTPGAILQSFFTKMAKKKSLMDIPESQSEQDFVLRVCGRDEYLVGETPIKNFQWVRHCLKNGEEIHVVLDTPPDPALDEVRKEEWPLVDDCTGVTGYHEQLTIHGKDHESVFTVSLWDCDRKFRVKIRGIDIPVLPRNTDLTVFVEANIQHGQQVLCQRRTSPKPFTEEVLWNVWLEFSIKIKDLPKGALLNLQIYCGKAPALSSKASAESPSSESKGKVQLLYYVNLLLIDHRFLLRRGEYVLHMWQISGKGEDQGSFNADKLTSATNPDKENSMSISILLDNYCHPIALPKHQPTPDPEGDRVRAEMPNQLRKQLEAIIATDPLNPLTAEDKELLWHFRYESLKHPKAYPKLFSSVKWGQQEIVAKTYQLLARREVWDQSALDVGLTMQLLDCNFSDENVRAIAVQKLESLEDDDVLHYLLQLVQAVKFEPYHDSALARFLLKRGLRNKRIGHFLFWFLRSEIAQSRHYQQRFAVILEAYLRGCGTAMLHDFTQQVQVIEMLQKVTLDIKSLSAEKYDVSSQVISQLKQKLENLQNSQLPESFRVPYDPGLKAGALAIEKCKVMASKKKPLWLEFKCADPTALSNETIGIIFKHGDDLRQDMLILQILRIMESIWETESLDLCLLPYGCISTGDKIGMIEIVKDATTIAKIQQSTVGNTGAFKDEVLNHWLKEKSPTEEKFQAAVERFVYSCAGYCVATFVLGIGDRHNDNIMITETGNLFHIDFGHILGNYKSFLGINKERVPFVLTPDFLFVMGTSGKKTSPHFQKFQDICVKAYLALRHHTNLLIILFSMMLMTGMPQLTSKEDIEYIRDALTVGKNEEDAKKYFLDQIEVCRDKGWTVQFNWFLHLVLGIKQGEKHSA

IC50	SMILES
517 nM	COc1ccc(-c2ccc3ncc4c(c3c2)n(-c2ncccc2C)c(=O)n4C)cn1 [Example 3.13, 8-(6-Methoxy-pyridin-3-yl)-3-methyl-1-(3-methyl-pyridin-2-yl)-1,3-dihydro-imidazo[4,5-c]quinolin-2-one]
404 nM	Cc1cccnc1-n1c(=O)n(C)c2cnc3ccc(-c4cnc5ccccc5c4)cc3c21 [Example 3.8, 3-Methyl-1-(3-methyl-pyridin-2-yl)-8-quinolin-3-yl-1,3-dihydro-imidazo[4,5-c]quinolin-2-one]
365 nM	COc1ccc(-c2ccc3ncc4c(c3c2)n(-c2cccnc2)c(=O)n4C)cc1OC [Example 5.2, 8-(3,4-Dimethoxy-phenyl)-3-methyl-1-pyridin-3-yl-1,3-dihydro-imidazo[4,5-c]quinolin-2-one]
377 nM	COc1ccc(-c2ccc3ncc4c(c3c2)n(-c2cccnc2)c(=O)n4C)cn1 [Example 5.4, 8-(6-Methoxy-pyridin-3-yl)-3-methyl-1-pyridin-3-yl-1,3-dihydro-imidazo[4,5-c]quinolin-2-one]

The remaining lines, values behind:

SMILES	IC50
CNc1ncc(-c2ccc3ncc4c(c3c2)n(-c2cccnc2C)c(=O)n4C)cn1 [Example 2.2, 3-Methyl-8-(2-methylamino-pyrimidin-5-yl)-1-(2-methyl-pyridin-3-yl)-1,3-dihydro-imidazo[4,5-c]quinolin-2-one]	331 nM
CCOc1ccc(-c2ccc3ncc4c(c3c2)n(-c2cccnc2OC)c(=O)n4C)cn1 [Example 1.5, 8-(6-Ethoxy-pyridin-3-yl)-1-(2-methoxy-pyridin-3-yl)-3-methyl-1,3-dihydro-imidazo[4,5-c]quinolin-2-one]	211 nM
CNc1ccc(-c2ccc3ncc4c(c3c2)n(-c2cccnc2OC)c(=O)n4C)cn1 [Example 1.4, 1-(2-Methoxy-pyridin-3-yl)-3-methyl-8-(6-methylamino-pyridin-3-yl)-1,3-dihydro-imidazo[4,5-c]quinolin-2-one]	227 nM
COc1ccc(-c2ccc3ncc4c(c3c2)n(-c2cccnc2OC)c(=O)n4C)cn1 [Example 1.1, 1-(2-Methoxy-pyridin-3-yl)-8-(6-methoxy-pyridin-3-yl)-3-methyl-1,3-dihydro-imidazo[4,5-c]quinolin-2-one]	237 nM
COc1ncccc1-n1c(=O)n(C)c2cnc3ccc(-c4cnc(N)c(C(F)(F)F)c4)cc3c21 [Example 1.3, 8-(6-Amino-5-trifluoromethyl-pyridin-3-yl)-1-(2-methoxy-pyridin-3-yl)-3-methyl-1,3-dihydro-imidazo[4,5-c]quinolin-2-one]	131 nM
CCOc1ccc(-c2ccc3ncc4c(c3c2)n(-c2cccnc2C)c(=O)n4C)cn1 [Example 2.1, 8-(6-Ethoxy-pyridin-3-yl)-3-methyl-1-(2-methyl-pyridin-3-yl)-1,3-dihydro-imidazo[4,5-c]quinolin-2-one]	587 nM
